Reference: patent publication US5783568A, “Methods for treating cancer and other cell proliferative diseases” (Sugen, Inc., priority 1994, dated 1998)
Entries after “also recorded” stand apart in the source; their conditions may differ.

How the values were obtained:
FGFR1 (flg) = FGFR1 (flg) expressed in the two CHO cell lines; assay type: cell-based
aFGF [1] = target: T1, aFGF (Homo sapiens, UniProt P05230); assay: Isothermal titration calorimetry, binding to aFGF; conditions: from ITC stoichiometry
T1 construct: made in house; host or cells: E. coli
T1 sequence (P05230 whole entry): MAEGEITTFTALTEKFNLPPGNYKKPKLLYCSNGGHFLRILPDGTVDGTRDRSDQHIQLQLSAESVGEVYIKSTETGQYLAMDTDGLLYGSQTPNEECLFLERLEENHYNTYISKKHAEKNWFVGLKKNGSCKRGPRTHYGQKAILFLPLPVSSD

FGFR2 (bek) = assay: Tyrosine phosphorylation of FGFR2 in mutant (HSPG-deficient) CHO-pgsD-677 cells; assay type: cell-based, human; conditions: 0.1 nM aFGF, 50 nM heparin, 5 min at 37° C.
Experimental: Cells were lysed and the receptor was immunoprecipitated with anti-FGFR2 antibodies. Samples were then analyzed by SDS-PAGE, transferred to nitrocellulose membranes, and tyrosine-phosphorylated proteins were detected by immunoblotting with anti-phosphotyrosine antibodies.
Wild-type CHO cells (CHO-K1), as well as heparin sulfate-deficient mutant cells (CHO-pgsD-677) which were kindly provided by Prof. J. Esko (Esko, 1991), were cultured in F-12 medium containing 7.5% FBS, 1% Ampicillin/Streptomycin and 1% glutamine. Both CHO cell lines were co-transfected with the wild-type human FGFR2 (bek) DNA in the expression vector pMJ30 (Dionne et al., 1990) (40 μg/10 cm dish) and the pSVneo resistant gene (0.5 mg/10 cm dish), using the calcium phosphate method (Chen and Okayama, 1987). Geneticin (1 mg/ml) resistant clones were screened for expression of the receptor by immunoprecipitation and immunoblotting analysis using anti-FGFR2 antibodies.
Wild-type and mutant CHO cells were starved overnight in F-12 medium containing 0.5% FBS, and stimulated with either 0.1 nM aFGF, 50 nM heparin, or both, for 5 min at 37° C. Cells were lysed, immunoprecipitated with anti-FGFR2 antibodies and analyzed by immunoblotting with anti-phosphotyrosine (anti-PTyr) antibodies.

aFGF [2] = target: T1, aFGF; conditions: Mach et al., 1993; cited from earlier work

Substance | dimerization and autophosphorylation with FGFR1 (flg) (FGFR1 (flg)) | saccharide units of heparin per one bound aFGF (aFGF [1]) | FGFR2 autophosphorylation in mutant (heparin-deficient) CHO cells (FGFR2 (bek)) | binding to aFGF (aFGF [2])
aFGF: aFGF was expressed in E. coli and purified by binding to a heparin-sepharose column | Identical results | – | – | –
heparin | – | 4-5 saccharide units | required for significant levels of aFGF-induced FGFR2 autophosphorylation; also recorded: the addition of heparin is required for aFGF to activate FGFR | relatively high affinity, in a multivalent fashion
